Reference: US12187662B2, “FOXM1 inhibitor compositions and methods of using the same” (The Board of Trustees of the University of Illinois, priority 2018, dated 2025)

Tests used:
[1] = tested on: tamoxifen-resistant MCF7 breast cancer cells; experiment: Proliferation of tamoxifen-resistant MCF7 cells; format: cell-based, human; details: 6 days
Experimental: Values are mean±SD of three separate assays. Cell proliferation assay WST-1 assay (Roche, Basel, Switzerland) was used to quantify cell viability as described (Gong et al., Mol. Cell Endocrinol., 2016, 437:190-200). Absorbance was measured at 450 nm using a VICTOR X5 PerkinElmer 2030 Multilabel Plate Reader. All assays were performed in triplicate.

[2] = tested on: FOXM1 target genes in MCF7 cells; experiment: FOXM1 target gene expression by qRT-PCR, MCF7; format: cell-based, human; details: MCF7, 24 h, at IC50 concentration
Experimental: (§1) RNA was extracted from cells and expression of different genes was monitored by qRT-PCR. Assays were run in triplicate. Values are mean±SEM. *, p<0.05; **, p<0.01; ***, p<0.001. RNA isolation and real-time PCR Total RNA was isolated using TRIzol (Invitrogen) and reverse transcribed using […] reverse transcriptase (New England BioLabs). Real-time PCR was performed using SYBRgreen PCR Master Mix (Roche) as described (Bergamaschi et al., Breast Cancer Res., 2014, 16:436). Relative mRNA levels of genes were normalized to the housekeeping gene 36B4, and fold change calculated relative to the vehicle treated samples. Results are the average±SD from at least two independent experiments carried out in triplicate. Primer sequences for the genes studied were obtained from the Harvard Primer Bank. Sequences are available on their website.

[3] = tested on: FOXM1 target genes in DT22 cells; experiment: FOXM1 target gene expression by qRT-PCR, DT22; format: cell-based, human; details: DT22, 24 h, at IC50 concentration
Text: as §1, with “Real-time PCR was performed using SYBRgreen PCR Master Mix (Roche) as described (Bergamaschi et al., Breast Cancer Res., 2014, 16:436).” left out

[4] = tested on: DT22 triple negative human breast tumor xenografts; experiment: DT22 triple negative breast tumor xenografts in NSG mice; format: in vivo, mouse; details: for Expression of FOXM1-regulated genes in tumors: q-PCR at end of treatment
Experimental: In vivo breast cancer xenograft studies For examination of the growth of triple-negative DT22 breast tumors, intact female NOD/SCID-gamma (NSG) mice were used. DT-22 cells (1×10^6 cells/mouse) were injected s.c. into the right axial mammary gland. Mice received s.c. injection or oral gavage daily or every second or third day, as indicated, with vehicle or FOXM1 inhibitor compound, and tumor growth was monitored over time.

[5] = tested on: FOXM1 cistrome genes in MDA-MB-231 cells; experiment: RNA-Seq Gene Set Enrichment Analysis, MDA-MB-231; format: cell-based, human; details: NB-73 […] 24 h, siFOXM1 25 nM 72 h
Experimental: RNA-Seq transcriptional profiling and gene ontology analysis For gene expression analysis, total RNA was extracted from cells using Trizol reagent and further cleaned using the Turbo DNase and RNAqueous kits (ThermoFisher). Cells were treated with Veh (0.1% EtOH), or with the compounds indicated for 9 h or 24 h. Once the sample quality and replicate reproducibility were verified, samples from each group were subjected to sequencing. RNA at a concentration of 100 ng/μL in nuclease-free water was used for library construction. cDNA libraries were prepared with the mRNA-TruSeq Kit (Illumina, Inc.). In brief, the poly-A containing mRNA was purified from total RNA, the RNA was fragmented, double-stranded cDNA was generated from fragmented RNA, and adapters were ligated to the ends.
The paired-end read data from the HiSeq 4000 were processed and analyzed through a series of steps. […] Reads were trimmed of adapters and low expression data using Trimmomatic version 0.38. The star alignment tool version 2.5.3a was used to align the sequenced reads to the GRCh37 human genome from Ensembl. Gene counts were calculated using subread version 1.5.2. […]
Gene Set Enrichment Analysis (GSEA) was used for examination of the genome-wide expression profiles. Overrepresented GO biological processes were determined by the web-based DAVID Bioinformatics Resources database.

[6] = Pharmacokinetic studies in mice after single s.c. or oral dose

**Q.** What does the source list for `C[N+]1(CCCCCCOc2ccc(C(c3ccc(OCCCCCC[N+]4(C)CCCCCC4)cc3)=C3C4C[C@H]5C[C@@H](C4)C[C@H]3C5)cc2)CCCCCC1` [NB-73, 1,1′-((((((5r,7r)-adamantan-2-ylidene)methylene)bis(4,1-phenylene))bis(oxy))bis(hexane-6,1-diyl))bis(1-methylazepan-1-ium) diiodide]?
**A.** Effect on proliferation of tamoxifen-resistant MCF7 cells [1]: effectively suppressed; Expression of ATF3 (gene suppressed by FOXM1) [2]: increased; Expression of FOXM1 stimulated target genes (FOXM1C, AURKB, CCNB1, PLK1) [2]: significantly reduced; Expression of ATF3 (gene suppressed by FOXM1) [3]: increased; Expression of FOXM1 stimulated target genes (FOXM1C, AURKB, CCNB1, PLK1) [3]: significantly reduced; Growth of DT22 tumor xenografts ([4]; 5 mg/kg s.c. daily, every other day from day 21): reduced tumor growth; Expression of FOXM1-regulated genes in tumors ([4]; 5 mg/kg s.c.): significant reduction; Growth of DT22 tumor xenografts ([4]; 10 mg/kg s.c. daily, every other day from day 21): even more markedly suppressed growth; Expression of FOXM1-regulated genes in tumors ([4]; 10 mg/kg s.c.): greatly reduced; Tumor growth in vivo, low doses ([4]; 5 or 10 mg/kg s.c. every second or third day): greatly suppress tumor growth; Growth of DT22 tumor xenografts ([4]; s.c., 20 mg/kg every other day for first 10 days then 10 mg/kg every other day): greatly suppress tumor growth; GSEA enrichment against FOXM1 target gene sets [5]: negative enrichment scores; half-life ([6]; female, CD-1, mouse, plasma, sc): 25 to 40 h; half-life ([6]; female, CD-1, mouse, plasma, sc, 60 mg/kg): 170 h; AUC(0-t) ([6]; female, CD-1, mouse, plasma, sc, 60 mg/kg, PK s.c. AUC0-48, mice, 60 mg/kg s.c.): 190 µM·h; PK p.o. AUC0-48 ([6]; mice, 60 mg/kg p.o.): too low to measure; Blood levels after oral administration ([6]; mice, oral, doses of FIGS. 6A-6B): very low levels; Blood levels after s.c. injection ([6]; mice, s.c., doses of FIGS. 6A-6B): very high blood levels
